# Laboratory results: patent US20260234165A1, “MACROCYCLIC COMPOUNDS, PREPARATION METHOD THEREFOR, AND USE THEREOF” (GENFLEET THERAPEUTICS (SHANGHAI) INC., priority 2004, published 2026)
# Like-named read-outs stand apart in the source and are kept apart here.
# Assays:
# [1] = test system: NCI-H441 cells; assay: 3D cell proliferation assay (CellTiter Glo-3D), NCI-H441; type: cell-based, human; conditions: medium with 2% FBS, read-out: H441 AP IC50
# Source text: MIA PaCa-2 cells were purchased from ATCC, Cat. No. CRL-1420; AsPC-1 cells were purchased from ATCC, Cat. No. CRL-1682; NCI-H441 cells were purchased from ATCC, Cat. No. HTB-174: NCI-H1975 cells were purchased from ATCC. Cat. No. CRL-5908; DMEM medium was purchased from Gibco, Cat. No. 11995-065: RPMI-1040 medium was purchased from Gibco. Cat. No. H 18754093; FBS was purchased from Gibco, Cat. No. 10099-141C. penicillin, streptomycin double-antibiotic solution (PS) was purchased from Gibco, Cat. No. 15140-122; Horse serum was purchased from Gibco. Cat. No. 16050130: trypsin (containing EDTA) was purchased from Gibco, Cat. No. 25200-072; DMSO was purchased from VWRAMRESCO, Cat. No. 0231-500ML; 384-well cell culture plates were purchased from Corning, Cat. No. 3830; white-bottomed, opaque 384-well assay plates were purchased from Corning, Cat. No. 3570. CellTiter Glo-3D) kit was purchased from Promega. Cat. No. G9683; cell counter was purchased from CHEMOMETEC, model: NC-200: microplate reader was purchased from PerkinElmer, model: EnVision.
# MIA PaCa-2, a human pancreatic cancer cell strain endogenously containing a KRAS^G12C mutation, was cultured in a complete medium containing DMEM+10% FBS+2.5% Horse serum+1% PS. AsPC-1, a human pancreatic cancer cell strain endogenously containing a […] mutation, was cultured in a complete medium containing RPMI-1640+10% FBS+1% PS. NCI-H441 cells, a human lung cancer cell strain endogenously containing a […] mutation, were cultured in a complete medium containing RPMI-1640+10% FBS+1% PS. NCI-H1975, a KRAS wild-type human lung cancer cell strain whose cell proliferation depends on KRAS activity, was cultured in a complete medium containing RPMI-1640+10% FBS+1% PS.
# The cells were digested with trypsin (containing EDTA), collected in their respective low-serum complete media containing 2% FBS (for MIA Paca-2 cell culture: DMEM+2% FBS+0.5% Horse serum+1% PS), and counted. After the cell density was adjusted as required, 200 MIA PaCa-2 cells, 800 AsPC-1 cells, 800 NCI-H441 cells, or 400 NCI-H1975 cells per well were seeded into a 384-well cell culture plate, with the volume of the medium in each well being 45 μL. The cell culture plate was incubated in an incubator at 37° C. with 5% CO2, overnight. A series of 3.16-fold gradient dilutions of a 1000× compound stock solution were prepared with DMSO, and then diluted 100-fold with the complete medium containing 2% FBS described above to give 10- compound stock solutions. On the day after cell seeding, 5 μL of the 10- compound stock solution was added to each cell culture well. As a result, the final concentration of the compound in the cell culture well became 1×, and the DMSO content in the well was 0.1%. In addition to the compound-treated wells described above, cell-containing DMSO control wells (with 5 μL of the complete medium containing 1% DMSO added to each well) and cell-free medium control wells (containing 50 μL of the complete medium with 2% FBS) were also set. The culture plate was incubated in an incubator at 37° C. with 5% CO2 for another 5 days, and then 30 μL of CellTiter-Glo working solution was added to each well. The mixture was well mixed, incubated for 30 min, left to stand at room temperature for 30 min, and then transferred to a white-bottomed, opaque 384-well assay plate at 40 μL/well. The chemiluminescence values (RLU) were measured using a microplate reader, and the cell proliferation inhibition rate for each well was calculated: IR (%)=(RLUDMSO—RLUcompound)/(RLUDMSO−RLUblank)×100%, where RLUDMSO is the average RLU signal value from the DMSO control well samples, RLUblank is the average RLU signal value from the medium control well samples, and RLUcompound is the RLU signal value from the compound-treated well samples. […]
# [2] = test system: p-ERK in NCI-H441 cells (KRAS G12V mutation); assay: Cell p-ERK assay (HTRF) in NCI-H441 cells; type: cell-based, human; conditions: NCI-H441 cells, 3 h compound incubation, HTRF p-ERK T202/Y204, read-out: H441 p-ERK IC50
# Protocol: AsPC-1 cells were purchased from ATCC, Cat. No. CRL-1682: NCI-H441 cells were purchased from ATCC, Cat. No. HTB-174: RPMI-1640 medium was purchased from Gibco, Cat. No. I1875-093: FBS was purchased from Gibco, Cat. No. 10099-141C: penicillin/streptomycin double-antibiotic solution (PS) was purchased from Gibco, Cat. No. 15140-122: trypsin (containing EDTA) was purchased from Gibco, Cat. No. 25200-072; DMSO was purchased from VWRAMRESCO, Cat. No. 0231-500ML; 96-well cell culture plates were purchased from Corning, Cat. No. 3599: white-bottomed, opaque 96-well plates were purchased from Cisbio, Cat. No. 66PL96025; Advance ERK phospho-T202/Y204 kit was purchased from Cisbio, Cat. No. 64AERPEH; cell counter was purchased from CHEMOMETEC, model: NC-200; microplate reader was purchased from PerkinElmer, model: EnVision.
# AsPC-1, a human pancreatic cancer cell strain endogenously containing a KRAS^G12D mutation, was cultured in a complete medium containing RPMI-1640+10% FBS+1% PS. NCI-H441, a human non-small cell lung cancer cell strain endogenously containing a KRAS^G12V mutation, was cultured in a complete medium containing RPMI-1640+10% FBS+1% PS.
# The cells were digested with trypsin (containing EDTA), collected in their corresponding complete media, and counted. The density of the cell suspensions was adjusted with their corresponding complete media, and 10000 AsPC-1 cells or 20000 NCI-H441 cells per well were seeded into a 96-well cell culture plate, with the volume of the medium in each well being 80 μL.
# The cell culture plate was incubated in an incubator at 37° C. with 5% CO2 overnight. A series of 3.16-fold gradient dilutions of a 1000- compound stock solution were prepared with DMSO, and then diluted 200-fold with the complete medium described above to give 5′ compound stock solutions. On the day after cell seeding, 20 μL of the 5× compound stock solution was added to each cell culture well. As a result, the final concentration of the compound in the cell culture well became 1×, and the DMSO content in the well was 0.1%. In addition to the compound-treated wells described above, cell-containing DMSO control wells were also set. A complete medium containing 0.5% DMSO was added at 20 μL/well. After the mixture was well mixed, the culture plate was incubated in the incubator at 37° C. with 5% CO2 for another 3 h. The medium was then removed from the culture wells, and 50 μL of cell lysis buffer (from Advance ERK phospho-T202,Y204 kit) was added to each well. The mixture was well mixed and incubated for 30 min. Then, 16 μL of the mixture was transferred to a white-bottomed, opaque 96-well assay plate, and separately, 16 μL of cell lysis buffer was added to additional wells (serving as blank wells) in the assay plate. After the transfer was completed, 4 μL of p-ERK HTRF antibody mixture (from Advance ERK phospho-T202/Y204 kit) was added to each well of the assay plate, followed by a 4-hour incubation. The HTRF signal values (RLU) were then measured using a microplate reader, and the inhibition rate of the compound against p-ERK levels was calculated as follows: IR (%)=(RLUDMSO−RLUcompound)/(RLUDMSO−RLUblank)×100%, where RLUDMSO is the average HTRF signal value from the DMSO control well samples, RLUblank is the average HTRF signal value from the blank well samples, and RLUcompound is the HTRF signal value from the compound-treated well samples. Using an XLfit software, the IR (%) values were plotted against the logarithm of the compound concentrations, and the dose-response curves were fitted using the four-parameter method to calculate the IC50 values.
# [3] = Homo sapiens, NCI-H441, 3D cell proliferation (CellTiter Glo-3D)
# [4] = 3D cell proliferation (CellTiter Glo-3D)
"IC50 [1, 3] [nM]","IC50 [1, 4] [nM]",Compound,also measured
31.4,–,"CCn1c(-c2cc(N3CCN(C)CC3)cnc2[C@H](C)OC)c2c3cc(ccc31)-c1csc(n1)C[C@H](Nc1ccon1)C(=O)N1CCC[C@H](N1)C(=O)OCC(C)(C)C2 (atropisomer, axis not shown) [Compound Z459]",–
74.2,–,"CCn1c(-c2cc(N3CCN(C)CC3)cnc2[C@H](C)OC)c2c3cc(ccc31)-c1csc(n1)C[C@H](Nc1nnc3n1CCCC3)C(=O)N1CCC[C@H](N1)C(=O)OCC(C)(C)C2 (atropisomer, axis not shown; (Ra)) [Compound Z423]","IC50 ([2]; Homo sapiens, NCI-H441, 3 h): 33.3 nM"
101,–,"CCn1c(-c2cc(N3CCN(C)CC3)cnc2[C@H](C)OC)c2c3cc(ccc31)-c1csc(n1)C[C@H](Nc1nnc3n1CC(C)CC3)C(=O)N1CCC[C@H](N1)C(=O)OCC(C)(C)C2 (atropisomer, axis not shown; (Ra)) [Compound Z431]","IC50 ([2]; Homo sapiens, NCI-H441, 3 h): 44.4 nM"
168,–,"CCn1c(-c2cc(N3CCN(C)CC3)cnc2[C@H](C)OC)c2c3cc(ccc31)-c1csc(n1)C[C@H](N(C)C)C(=O)N1CCC[C@H](N1)C(=O)OCC(C)(C)C2 (atropisomer, axis not shown; (Ra)) [Compound Z458]",–
–,2.33,"CNCCn1c(-c2cc(C#CCN3CCS(=O)(=O)CC3)cnc2[C@H](C)OC)c2c3cc(ccc31)-c1csc(n1)C[C@H](NC(=O)[C@H]1[C@H](C)[C@@H]1C)C(=O)N1CCC[C@H](N1)C(=O)OCC(C)(C)C2 (atropisomer, axis not shown; (Ra)) [Compound Z954, (1r,2R,3S)—N-((6^3S,4S,Z)-1^2-(5-(3-(1,1-dioxidodimorpholino)prop-1-yn-1-yl)-(Ra)-2-((S)-1-methoxyethyl)pyridin-3-yl)-10,10-dimethyl-1^1-(2-(methylamino)ethyl)-5,7-dioxo-6^1,6^2,6^3,6^4,6^5,6^6-hexahydro-1^1H-8-oxa-2-(4,2)-thiazola-1(5,3)-indola-6(1,3)-pyridazinacycloundecaphane-4-yl)-2,3-dimethylcyclopropane-1-carboxamide]",–
7.2,–,"CCn1c(-c2cc(C#CCN3CCCOCC3)cnc2[C@H](C)OC)c2c3cc(ccc31)-c1csc(n1)C[C@H](Nc1nnc3cc(I)ccn13)C(=O)N1CCC[C@H](N1)C(=O)OCC(C)(C)C2 (atropisomer, axis not shown; (Ra)) [Compound Z970, (6^3S,4S,Z)-1^2-(Ra)-(5-(3-(1,4-oxazepan-4-yl)prop-1-yn-1-yl)-2-((S)-1-methoxyethyl)pyridin-3-yl)-1^1-ethyl-4-((7-iodo-[1,2,4]triazolo[4,3-a]pyridin-3-yl)amino)-10,10-dimethyl-6^1,6^2,6^3,6^4,6^5,6^6-hexahydro-1^1H-8-oxa-2(4,2)-thiazola-1(5,3)-indola-6(1,3)-pyridazinacycloundecaphane-5,7-dione]",–
965,–,"[2H]C([2H])([2H])O[C@@H](C)c1ncc(N2CCN3CCOC[C@@H]3C2)cc1-c1c2c3cc(ccc3n1CC)-c1csc(n1)C[C@H](NC(=O)[C@H]1[C@H](C)[C@@H]1C)C(=O)N1CCC[C@H](N1)C(=O)OCC(C)(C)C2 (atropisomer, axis not shown; (Sa)) [Compound Z74, (1r,2R,3S)—N-((6^3S,4S,Z)-1^1-ethyl-(Sa)-1^2-(5-((S)-hexahydropyrazino[2,1-c][1,4]oxazin-8(1H)-yl)-2-((S)-1-(methoxy-d3)ethyl)pyridin-3-yl)-10,10-dimethyl-5,7-dioxo-6^1,6^2,6^3,6^4,6^5,6^6-hexahydro-1^1H-8-oxa-2(4,2)-thiazola-1(5,3)-indola-6(1,3)-pyridazinacycloundecaphane-4-yl)-2,3-dimethylcyclopropane-1-carboxamide]",–
–,96.3,"CCn1c(-c2cc(OCCN3CC[S+]([O-])CC3)cnc2[C@H](C)OC)c2c3cc(ccc31)-c1csc(n1)C[C@H](NC(=O)[C@H]1[C@H](C)[C@@H]1C)C(=O)N1CCC[C@H](N1)C(=O)OCC(C)(C)C2 (atropisomer, axis not shown; (Sa)) [Compound Z600-1]",IC50 [2]: 82.7 nM
–,2.57,"CCn1c(-c2cc(C#CCN3CCN(C(=O)CO)CC3)cnc2C(C)OC)c2c3cc(ccc31)-c1csc(n1)CC(Nc1nnc3cc(C)ccn13)C(=O)N1CCCC(N1)C(=O)OCC(C)(C)C2 [Compound Z982, (6^3S,4S,Z)-1^1-ethyl-1^2-(5-(3-(4-(2-hydroxyacetyl)piperazin-1-yl)prop-1-yn-1-yl)-2-((S)-1-methoxyethyl)pyridin-3-yl)-10,10-dimethyl-4-((7-methyl-[1,2,4]triazolo[4,3-a]pyridin-3-yl)amino)-6^1,6^2,6^3,6^4,6^5,6^6-hexahydro-1^1H-8-oxa-2(4,2)-thiazola-1(5,3)-indola-6(1,3)-pyridazinacycloundecaphane-5,7-dione]",–
